In PMC12549899 (Nature Communications, 2025):

Target: T1, DrOTOP1 F277A (Danio rerio, UniProt Q7ZWK8, F277A)
T1 construct: A previously generated codon-optimized full-length DrOTOP1[8]; (UniProt: Q7ZWK8) construct; expressed in transfected cells; host or cells: HEK-293 (CRL-1573, ATCC)
T1 sequence (Q7ZWK8 1-586 F277A): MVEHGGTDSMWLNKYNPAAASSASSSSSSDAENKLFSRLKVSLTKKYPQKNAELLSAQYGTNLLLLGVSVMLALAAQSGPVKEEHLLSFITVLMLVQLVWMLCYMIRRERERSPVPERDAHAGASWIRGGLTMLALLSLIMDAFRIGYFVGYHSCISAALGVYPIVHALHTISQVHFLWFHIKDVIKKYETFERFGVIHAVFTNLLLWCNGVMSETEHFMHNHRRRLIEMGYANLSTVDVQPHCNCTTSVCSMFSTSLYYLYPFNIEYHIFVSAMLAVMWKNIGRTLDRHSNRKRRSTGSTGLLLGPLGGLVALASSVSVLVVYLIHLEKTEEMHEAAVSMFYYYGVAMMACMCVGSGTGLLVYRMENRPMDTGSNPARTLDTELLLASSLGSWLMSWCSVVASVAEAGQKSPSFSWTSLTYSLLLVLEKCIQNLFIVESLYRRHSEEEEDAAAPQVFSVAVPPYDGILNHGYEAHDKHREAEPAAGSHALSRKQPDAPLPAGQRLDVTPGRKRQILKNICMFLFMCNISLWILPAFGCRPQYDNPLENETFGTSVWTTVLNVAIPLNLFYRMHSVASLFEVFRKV
Test: Whole-cell patch-clamp, inhibition of acid-evoked currents, DrOTOP1 F277A
Assay type: cell-based, zebrafish (Danio rerio)
Conditions: single cells or mean
Excerpt: To functionally test the significance of the two binding sites identified by cryo-EM, we generated point mutations of DrOTOP1 using the binding poses and conformational changes observed in DrOTOP1_C2.2 to guide our mutations. As per the binding pose that best fits our cryo-EM density, C2.2 forms the following interactions in the outer site: hydrophobic packing against many non-polar residues W126, G130, M133, L134, F271, F570, and M573, and π-stacking with W532 (Fig. 5A). In addition, C2.2 could potentially form H-bonds with E267, if the sidechain is protonated or a water bridge is present, and with H574 if it moves closer (Fig. 5A). Likewise, C2.36 presents a heterocyclic nitrogen that can potentially form a H-bond with E267, similarly, provided a protonation or water bridge is present (Fig. 5B). In addition, C2.36 forms a T-shaped π-stacking interaction with H574, whose sidechain has rotated 90 degrees (compared to DrOTOP1_apo), presumably to accommodate the interaction (Fig. 5B). […]
Whole-cell patch-clamp recording was performed as previously described[6],[22],[25]. Recordings were made with an Axopatch 200B amplifier, digitized with a Digidata 1322a 16-bit data acquisition system, acquired with pClamp 8.2 and analyzed with Clampfit 10 (Molecular Devices). […]

Q: With `C=C(C)COc1ccccc1NC(=O)c1nc[nH]c1C` [C2.2] as the molecule, how does the inhibition at 10 µM read?
A: 76.2%
